# Experimental data taken from article PMC12552119, “Tailored structured peptide design with a key-cutting machine approach” (Nature Machine Intelligence, 2025).
# Where no end group is shown, it is not given here.
# What was measured:
# [1] = tested on: 11 clinically relevant strains, including the ESKAPEE pathogens; test: MIC against the whole strain panel; format: cell-based; conditions: 11 strains, peptides 1-64 μmol l^-1
# Text: We synthesized 12 sequences selected for their ease of synthesis and low aggregation potential: five from AT, four from NE and three from NG. We excluded the ND group because its peptides were challenging to synthesize and solubilize. We determined their minimum inhibitory concentrations (MICs) against 11 clinically relevant strains, including the ESKAPEE pathogens. […] Further investigation is needed to confirm this hypothesis.
# Fig. 2 Antimicrobial activity and secondary structure of computationally designed peptides. a, Structure prediction of the synthesized peptides. b, Heatmap of the antimicrobial activities of the peptides against 11 clinically relevant pathogens, including four strains resistant to conventional antibiotics. Briefly, 10^6 bacterial cells and serially diluted peptides (1-64 μmol l^−1) were incubated at 37 °C. One day after treatment, the optical density at 600 nm was measured in a microplate reader to evaluate bacterial growth in the presence of the peptides. MIC values in the heatmap are the mode of the replicates in each condition. c–f, Ternary plots showing the percentage of secondary structure for each peptide (at 50 μmol l^−1) in four different solvents: water (c), 60% TFE in water (d), 10 mmol l^−1 SDS in water (e) and 50% methanol (MeOH) in water (f). Secondary structure fractions were calculated using the BeStSel server. […]
# HEK293T cells = test: Cytotoxicity, MTT assay; format: cell-based, human; conditions: 24 h
# Method: Fig. 3 Mechanism of action and cytotoxic activity of designed peptides. a, To assess whether the peptides act on bacterial membranes, all active peptides against A. baumannii American Type Culture Collection (ATCC) 19606 were subjected to outer-membrane permeabilization, and peptides active against A. baumannii ATCC 19606 and vancomycin-resistant E. faecalis ATCC 700802 were tested in cytoplasmic-membrane depolarization assays. b, The fluorescent probe NPN was used to assess membrane permeabilization induced by the tested peptides. c,d, The fluorescent probe DiSC3-5 was used to evaluate membrane depolarization caused by the designed peptides in A. baumannii ATCC 19606 (c) and vancomycin-resistant E. faecalis ATCC 700802 (d). […] All experiments were performed in three independent replicates. Panel a created with BioRender.com. Source data TEXT PRINTED IN THE PICTURE: (e) AT1: CC50 (μmol l^-1), HEK293T cells: 2,758 | (e) AT2: CC50 (μmol l^-1), HEK293T cells: 2 × 10^37 | (e) AT3: CC50 (μmol l^-1), HEK293T cells: 269 | (e) AT4: CC50 (μmol l^-1), HEK293T cells: 3,015 | (e) AT5: CC50 (μmol l^-1), HEK293T cells: 6 × 10^41 | (e) NE1: CC50 (μmol l^-1), HEK293T cells: 6 × 10^33 | (e) NE2: CC50 (μmol l^-1), HEK293T cells: 507 | (e) NE3: CC50 (μmol l^-1), HEK293T cells: 655 | (e) NE4: CC50 (μmol l^-1), HEK293T cells: 2 × 10^32 | (e) NG1: CC50 (μmol l^-1), HEK293T cells: 351 | (e) NG2: CC50 (μmol l^-1), HEK293T cells: 1 × 10^35 | (e) NG3: CC50 (μmol l^-1), HEK293T cells: 2 × 10^46 DOUBTS OF THE COPYIST ABOUT THIS PICTURE: AT2, CC50: small exponent, 37 or 57 / AT5, CC50: small exponent, 41 uncertain / NE1, CC50: small exponent, 33 or 38 / NE4, CC50: small exponent, 32 or 52 / NG2, CC50: small exponent, 35 or 36 / NG3, CC50: small exponent, 46 or 48 […]
# HEK293T cells were obtained from the ATCC (CRL-3216). The cells were cultured in high-glucose DMEM supplemented with 1% penicillin and streptomycin (antibiotics) and 10% fetal bovine serum and grown at 37 °C in a humidified atmosphere containing 5% CO2.
# One day before the experiment, an aliquot of 100 μl of the cells at 50,000 cells ml^−1 was seeded into each well of the cell-treated 96-well plates used in the experiment (that is, 5,000 cells per well)[45]. The attached HEK293T cells were then exposed to increasing concentrations of the peptides (4–64 μmol l^−1) for 24 h. After the incubation period, we performed the (3-(4,5-dimethylthiazol-2-yl)-2,5-diphenyltetrazolium bromide) tetrazolium reduction assay (MTT assay)[45]. […] The resulting salts were then resuspended in hydrochloric acid (0.04 mol l^−1) in anhydrous isopropanol and quantified by spectrophotometric measurements of absorbance at 570 nm. […]
# [2] = tested on: E. faecalis ATCC 700802 - VRE; format: cell-based, Enterococcus faecalis; conditions: ATCC 700802, 24 h
# Method: (§1) Fig. 2 Antimicrobial activity and secondary structure of computationally designed peptides. a, Structure prediction of the synthesized peptides. b, Heatmap of the antimicrobial activities of the peptides against 11 clinically relevant pathogens, including four strains resistant to conventional antibiotics. Briefly, 10^6 bacterial cells and serially diluted peptides (1-64 μmol l^−1) were incubated at 37 °C. One day after treatment, the optical density at 600 nm was measured in a microplate reader to evaluate bacterial growth in the presence of the peptides. MIC values in the heatmap are the mode of the replicates in each condition. c–f, Ternary plots showing the percentage of secondary structure for each peptide (at 50 μmol l^−1) in four different solvents: water (c), 60% TFE in water (d), 10 mmol l^−1 SDS in water (e) and 50% methanol (MeOH) in water (f). Secondary structure fractions were calculated using the BeStSel server. […] An error of one column cannot be fully excluded. / Panel b: AT1, AT2, AT3 and all blank cells print no number and are left out.
# (§2) Broth microdilution assays[64] were conducted to establish the MIC for each peptide. Peptides were added to untreated polystyrene 96-well microtiter plates and serially diluted twofold in sterile water, ranging from 1 to 64 μmol l^−1. A bacterial inoculum at a concentration of 10^6 CFU ml^−1 in LB medium was then mixed in a 1:1 ratio with the peptide solution. […] Each assay was performed in three independent replicates.
# [3] = Mouse weight in the skin abscess model; parameters: species or system CD-1 mice; conditions: in vivo
# Method: The backs of six-week-old female CD-1 mice under anaesthesia were shaved and injured with a superficial linear skin abrasion made with a needle. An aliquot of A. baumannii ATCC 19606 (2 × 10^6 CFU ml^−1; 20 μl) previously grown in LB medium until 0.5 optical density ml^−1 (optical value at 600 nm) and then washed twice with sterile PBS (pH 7.4, 9,391 g for 3 min) was added to the scratched area. Peptides diluted in sterile water at MIC value were administered to the wound area 1 h after the infection. Two and four days after infection animals were euthanized, and the scarified skin was excised, homogenized using a bead beater (25 Hz for 20 min), tenfold serially diluted, and plated on McConkey agar plates for CFU quantification. The experiments were performed using six mice per group. Mice were housed in groups of three and maintained under a 12-h light/dark cycle at 22 °C with humidity controlled at 50%. The skin abscess infection mouse model was revised and approved by University Laboratory Animal Resources from the University of Pennsylvania (protocol 806763).
# Figure S6. Cytotoxicity and anti-infective activity of designed peptides. (a) Cytotoxic effects of increasing concentrations ([…]) of each peptide on human embryonic kidney (HEK293T) cells after 24 h of treatment. Mouse weight was monitored throughout the duration of the (b) skin abscess model (4 days total) and the (e) deep thigh infection model (8 days total) to assess potential toxic effects of both the bacterial load and the designed peptides. (c) Schematic of the neutropenic thigh infection mouse model, where the designed peptides were administered intraperitoneally. Anti-infective activity against A. baumannii ATCC 19606 was evaluated 4 days after intraperitoneal peptide administration (n = 6). (d) Four days after intraperitoneal injection, NE2 at its MIC (32 µmol L-1) inhibited by […]
# Statistical significance in panel d was determined using one-way ANOVA followed by Dunnett’s test; P values are shown in the graphs. […]
# [4] = tested on: E. faecium ATCC 700221 - VRE; format: cell-based; conditions: ATCC 700221, 24 h
# Method: as §1, §2
# A. baumannii ATCC 19606 [5] = format: cell-based, Acinetobacter baumannii; conditions: ATCC 19606, 24 h
# Method: as §1
# In this study, we used the following pathogenic bacterial strains: A. baumannii ATCC 19606, E. coli AIC221 (E. coli MG1655 phnE_2::FRT (control strain for AIC222)) and E. coli AIC222 (E. coli MG1655 pmrA53 phnE_2::FRT (polymyxin resistant; colistin-resistant strain)), Klebsiella pneumoniae ATCC 13883, Pseudomonas aeruginosa PAO1, P. aeruginosa PA14 and Staphylococcus aureus ATCC 12600. All pathogens were grown in Luria–Bertani (LB) broth and on LB agar. Pseudomonas isolation (P. aeruginosa strains) agar plates were exclusively used in the case of Pseudomonas species. In all the experiments, bacteria were inoculated from one isolated colony and grown overnight (16 h) in liquid medium at 37 °C. On the following day, inocula were diluted 1:100 in fresh media and incubated at 37 °C to mid-logarithmic phase.
# as §2
# A. baumannii ATCC 19606 [6] = test: Cytoplasmic-membrane depolarization, DiSC3-5; format: cell-based, Acinetobacter baumannii; conditions: DiSC3-5 fluorescence, peptides at their MIC, 60 min
# Method: Fig. 3 Mechanism of action and cytotoxic activity of designed peptides. a, To assess whether the peptides act on bacterial membranes, all active peptides against A. baumannii American Type Culture Collection (ATCC) 19606 were subjected to outer-membrane permeabilization, and peptides active against A. baumannii ATCC 19606 and vancomycin-resistant E. faecalis ATCC 700802 were tested in cytoplasmic-membrane depolarization assays. b, The fluorescent probe NPN was used to assess membrane permeabilization induced by the tested peptides. c,d, The fluorescent probe DiSC3-5 was used to evaluate membrane depolarization caused by the designed peptides in A. baumannii ATCC 19606 (c) and vancomycin-resistant E. faecalis ATCC 700802 (d). […] All experiments were performed in three independent replicates. […]
# The cytoplasmic-membrane depolarization assay was performed using the membrane-potential-sensitive dye DiSC3-5. […] Membrane depolarization was then followed by reading changes in the fluorescence (λex = 622 nm, λem = 670 nm) over time for 60 min. The relative fluorescence was calculated using the untreated control (buffer + bacteria + fluorescent dye) as baseline and the following equation was applied to reflect the percentage difference between the baselines and the sample: percentagedifference=100×(fluorescencesample−fluorescenceuntreatedcontrol)/fluorescenceuntreatedcontrol. […]
Compound,"CC50, cytotoxic concentration leading to 50% cell lysis (HEK293T cells)",MIC [2],MIC [4],also measured
HWHNKVLHWHIQ [AT3],268.9 µM,,,MIC against at least one strain / activity in the panel [1]: inactive
FKLCFVLHFVAL [NE4],,8 µM,,
HWHAILIHFHFA [AT1],2758 µM,,,MIC against at least one strain / activity in the panel [1]: inactive
"C[C@H]1COc2c(N3CCN(C)CC3)c(F)cc3c(=O)c(C(=O)O)cn1c23 [Levofloxacin, reference compound]",,,,mouse weight (day 0 = 100) [3]: 105
WHFHVWIHCIAF [NE3],655.4 µM,16 µM,32 µM,
CC[C@H](C)[C@H](NC(=O)[C@H](CS)NC(=O)[C@H](CC(C)C)NC(=O)[C@H](Cc1c[nH]c2ccccc12)NC(=O)[C@H](C)NC(=O)[C@H](CCSC)NC(=O)[C@H](C)NC(=O)[C@H](Cc1c[nH]cn1)NC(=O)[C@@H]1CCCN1)C(=O)N[C@@H](CCCNC(=N)N)C(=O)N[C@@H](Cc1ccccc1)C(=O)N[C@@H](Cc1c[nH]cn1)C(=O)O [NE1],,8 µM,16 µM,MIC (A. baumannii ATCC 19606 [5]): 32 µM; cytoplasmic-membrane depolarization (A. baumannii ATCC 19606 [6]): particularly effective
IWHAAVLHFAIS [AT5],,64 µM,32 µM,
HWHLILHFHACH [NG2],,64 µM,64 µM,
